“And” between values parts separate entries of the source, which are not always exact repeats. Equal values may be shown once. ± gives the expanded uncertainty stated by the source.
Conditions: 313.15 K; Liquid; Ebulliometric method (Recirculating still)

SMILES | vapor or sublimation pressure
C1CCCCC1 [cyclohexane] | 24.61 ± 0.14 kPa and 24.62 ± 0.14 kPa
CCCCCCC [heptane] | 12.33 ± 0.088 kPa and 12.33 ± 0.087 kPa
C=CCCCC [hex-1-ene] | 44.95 ± 0.22 kPa

Source: the NIST ThermoML archive (doi:10.1021/je7007523)
